Experimental data: ChEMBL document CHEMBL1201862, “PubChem BioAssay data set” (2004)
Calls of active or inactive are those of the source.

Tests used:
cells = format: functional
[1] = viability of PTEN-deleted HCT116 cells – cell-based, HCT116 PTEN knockout, dose response (AID 1047); format: functional;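 further: HCT116 colon tumor cells with PTEN knocked out; cells exposed to compound for 60 hours before readout; potency for loss of cell viability measured by luminescence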
Vero = assay: cells; format: functional; conditions: Chlorocebus sabaeus
[2] = viability of HCT116 lacking mutant beta-catenin – cell-based, human colon tumor, dose response (AID 1045); format: functional;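 further: HCT116 colon tumor cells with beta catenin knocked out; cells exposed to compound for 60 hours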
[3] = biological target: DNA dC->dU-editing enzyme APOBEC-3G (Homo sapiens, UniProt Q9HC16); assay: Dose Response confirmation of small molecule APOBEC3G DNA Deaminase Inhibitors via a fluorescence-based single-stranded DNA deaminase assay. [Related pubchem assays (depositor defined):AID493012, AID493028]; format: functional
[4] = reduction of Shn3 3'UTR-driven luciferase in osteoblasts – cell-based, Clone20 osteoblasts, firefly luciferase, cherry-picked, dose response (AID 624132); format: functional;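 further: firefly luciferase luminescence from reporter carrying the Shn3 3'UTR in osteoblasts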
[5] = biological target: Glucose-6-phosphate 1-dehydrogenase (Homo sapiens, UniProt P11413); assay: inhibition of Homo sapiens G6PD, dose series – biochemical, fluorescence, selectivity assay for P. falciparum G6PD inhibitor project, dose response (AID 504792); format: functional
[6] = HEK-293T cell viability reduction – luminescence, B-cell screen hits, cytotoxicity control for BCR NF-kB inhibitor project, dose response (AID 489021); format: functional, cell-based;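 further: HEK-293T cells carrying an NF-kB luciferase reporter; cells exposed to compound for about 14 hours before viability readout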
Protein RecA = biological target: T1, Protein RecA (Mycobacterium tuberculosis, UniProt P9WHJ3); assay: Fluorescence Cell-Free Homogeneous Dose Retest to Identify Inhibitors of RecA-Intein Splicing Activity. [Related pubchem assays (depositor defined):AID2097, AID2223, AID489010, AID492950]; format: functional
T1 sequence (P9WHJ3 whole entry): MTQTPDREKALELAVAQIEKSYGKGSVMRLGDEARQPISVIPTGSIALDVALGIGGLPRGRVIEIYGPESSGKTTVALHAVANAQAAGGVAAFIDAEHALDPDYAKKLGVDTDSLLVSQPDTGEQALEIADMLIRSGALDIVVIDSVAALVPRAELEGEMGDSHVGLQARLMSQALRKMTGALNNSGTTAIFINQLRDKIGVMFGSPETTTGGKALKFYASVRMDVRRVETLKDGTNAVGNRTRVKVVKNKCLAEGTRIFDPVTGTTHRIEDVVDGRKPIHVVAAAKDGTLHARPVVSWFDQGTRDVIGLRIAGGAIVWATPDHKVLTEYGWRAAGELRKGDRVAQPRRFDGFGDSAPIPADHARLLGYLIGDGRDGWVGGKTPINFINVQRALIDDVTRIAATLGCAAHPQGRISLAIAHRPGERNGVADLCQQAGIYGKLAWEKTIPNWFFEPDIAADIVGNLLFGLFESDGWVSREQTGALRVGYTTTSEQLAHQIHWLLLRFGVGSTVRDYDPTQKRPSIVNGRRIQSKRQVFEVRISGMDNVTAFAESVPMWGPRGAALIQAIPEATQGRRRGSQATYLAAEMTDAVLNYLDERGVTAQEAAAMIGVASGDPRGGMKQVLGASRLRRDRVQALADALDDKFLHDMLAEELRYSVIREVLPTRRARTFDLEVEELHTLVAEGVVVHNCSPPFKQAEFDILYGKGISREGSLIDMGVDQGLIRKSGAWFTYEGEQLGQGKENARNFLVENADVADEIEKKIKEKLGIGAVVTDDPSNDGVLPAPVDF

Aminopeptidase N = biological target: T2, Aminopeptidase N (Plasmodium falciparum FcB1/Columbia, UniProt O96935); assay: malaria alanyl aminopeptidase activity blockers – biochemical, fluorogenic H-Leu-NHMec substrate, 1536-well (AID 1445); set-up: species or system Plasmodium falciparum 3D7, 3D7
T2 sequence (O96935 whole entry): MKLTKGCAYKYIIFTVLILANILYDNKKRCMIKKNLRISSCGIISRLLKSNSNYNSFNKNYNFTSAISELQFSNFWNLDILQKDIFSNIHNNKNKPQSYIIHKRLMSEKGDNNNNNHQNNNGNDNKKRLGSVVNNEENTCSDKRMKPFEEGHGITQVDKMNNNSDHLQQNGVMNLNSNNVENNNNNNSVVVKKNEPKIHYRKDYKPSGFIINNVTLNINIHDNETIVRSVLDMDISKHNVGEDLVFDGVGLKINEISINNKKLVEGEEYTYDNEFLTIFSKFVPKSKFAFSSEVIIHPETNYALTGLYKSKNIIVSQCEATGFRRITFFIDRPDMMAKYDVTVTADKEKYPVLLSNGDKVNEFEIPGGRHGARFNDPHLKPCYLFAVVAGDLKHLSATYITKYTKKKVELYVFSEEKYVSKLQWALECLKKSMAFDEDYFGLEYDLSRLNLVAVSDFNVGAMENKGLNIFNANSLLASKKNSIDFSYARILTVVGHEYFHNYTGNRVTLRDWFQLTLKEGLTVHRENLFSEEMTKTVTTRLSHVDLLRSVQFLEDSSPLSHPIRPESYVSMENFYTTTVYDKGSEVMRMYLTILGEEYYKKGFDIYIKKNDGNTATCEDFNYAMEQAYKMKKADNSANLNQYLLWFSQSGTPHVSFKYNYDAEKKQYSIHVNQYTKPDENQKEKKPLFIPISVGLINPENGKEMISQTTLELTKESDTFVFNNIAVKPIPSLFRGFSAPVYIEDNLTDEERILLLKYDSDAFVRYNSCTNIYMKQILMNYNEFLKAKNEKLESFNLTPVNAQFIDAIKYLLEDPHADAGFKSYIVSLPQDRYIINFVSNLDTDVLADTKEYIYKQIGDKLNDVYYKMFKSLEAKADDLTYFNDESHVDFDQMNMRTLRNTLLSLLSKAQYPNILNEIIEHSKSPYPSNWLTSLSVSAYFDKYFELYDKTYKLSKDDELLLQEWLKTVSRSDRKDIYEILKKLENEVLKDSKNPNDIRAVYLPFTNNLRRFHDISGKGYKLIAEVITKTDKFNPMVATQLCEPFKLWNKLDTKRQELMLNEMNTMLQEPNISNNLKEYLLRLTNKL

HEK293 [7] = assay: cells; format: functional, cell-based; conditions: Homo sapiens
HEK293 [8] = assay: inhibition of NOD1-driven NF-kB reporter – cell-based, luminescence, uHTS, primary screen (AID 1578); format: functional; conditions: Homo sapiens
[9] = biological target: Nucleotide-binding oligomerization domain-containing protein 2 (Homo sapiens, UniProt Q9HC29); assay: inhibition of NOD2-driven NF-kB reporter – cell-based, luminescence, uHTS, HEK293 (AID 1566); format: functional
HEK293 [10] = assay: cells; format: functional, cell-based; conditions: Homo sapiens; remark: listed apart in the source
HEK293 [11] = assay: NOD2 signaling inhibitors in MDP-stimulated cells, cell-based, uHTS, luminescence (AID 2001); format: functional; conditions: Homo sapiens
HEK293 [12] = assay: cells; format: functional, cell-based; conditions: Homo sapiens; remark: listed apart in the source

Sequence of DNA dC->dU-editing enzyme APOBEC-3G (Q9HC16 whole entry): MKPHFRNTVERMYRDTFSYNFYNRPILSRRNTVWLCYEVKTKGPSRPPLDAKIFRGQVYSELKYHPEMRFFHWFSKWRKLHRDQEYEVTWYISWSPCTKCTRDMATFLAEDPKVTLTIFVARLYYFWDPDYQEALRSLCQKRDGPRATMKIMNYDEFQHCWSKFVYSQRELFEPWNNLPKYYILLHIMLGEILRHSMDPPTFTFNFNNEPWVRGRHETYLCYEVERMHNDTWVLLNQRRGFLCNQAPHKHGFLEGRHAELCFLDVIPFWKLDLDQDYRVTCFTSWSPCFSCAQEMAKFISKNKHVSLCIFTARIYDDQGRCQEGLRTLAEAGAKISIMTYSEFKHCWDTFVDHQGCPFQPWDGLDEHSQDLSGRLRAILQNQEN
Sequence of Glucose-6-phosphate 1-dehydrogenase (P11413 whole entry): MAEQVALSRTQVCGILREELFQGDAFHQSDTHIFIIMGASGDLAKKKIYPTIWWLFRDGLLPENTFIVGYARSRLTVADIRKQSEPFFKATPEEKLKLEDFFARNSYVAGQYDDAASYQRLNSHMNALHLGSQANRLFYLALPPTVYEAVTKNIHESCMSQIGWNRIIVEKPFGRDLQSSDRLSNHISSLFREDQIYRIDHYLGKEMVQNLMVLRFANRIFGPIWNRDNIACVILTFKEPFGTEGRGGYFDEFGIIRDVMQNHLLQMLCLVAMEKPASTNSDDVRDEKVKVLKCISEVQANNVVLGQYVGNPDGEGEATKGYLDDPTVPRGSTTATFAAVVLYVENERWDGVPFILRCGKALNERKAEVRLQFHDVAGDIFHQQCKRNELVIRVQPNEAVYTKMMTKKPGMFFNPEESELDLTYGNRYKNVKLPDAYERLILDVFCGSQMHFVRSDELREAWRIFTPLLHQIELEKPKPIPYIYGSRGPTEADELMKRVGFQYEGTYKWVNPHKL
Sequence of Nucleotide-binding oligomerization domain-containing protein 2 (Q9HC29 whole entry, the tested form may be a part): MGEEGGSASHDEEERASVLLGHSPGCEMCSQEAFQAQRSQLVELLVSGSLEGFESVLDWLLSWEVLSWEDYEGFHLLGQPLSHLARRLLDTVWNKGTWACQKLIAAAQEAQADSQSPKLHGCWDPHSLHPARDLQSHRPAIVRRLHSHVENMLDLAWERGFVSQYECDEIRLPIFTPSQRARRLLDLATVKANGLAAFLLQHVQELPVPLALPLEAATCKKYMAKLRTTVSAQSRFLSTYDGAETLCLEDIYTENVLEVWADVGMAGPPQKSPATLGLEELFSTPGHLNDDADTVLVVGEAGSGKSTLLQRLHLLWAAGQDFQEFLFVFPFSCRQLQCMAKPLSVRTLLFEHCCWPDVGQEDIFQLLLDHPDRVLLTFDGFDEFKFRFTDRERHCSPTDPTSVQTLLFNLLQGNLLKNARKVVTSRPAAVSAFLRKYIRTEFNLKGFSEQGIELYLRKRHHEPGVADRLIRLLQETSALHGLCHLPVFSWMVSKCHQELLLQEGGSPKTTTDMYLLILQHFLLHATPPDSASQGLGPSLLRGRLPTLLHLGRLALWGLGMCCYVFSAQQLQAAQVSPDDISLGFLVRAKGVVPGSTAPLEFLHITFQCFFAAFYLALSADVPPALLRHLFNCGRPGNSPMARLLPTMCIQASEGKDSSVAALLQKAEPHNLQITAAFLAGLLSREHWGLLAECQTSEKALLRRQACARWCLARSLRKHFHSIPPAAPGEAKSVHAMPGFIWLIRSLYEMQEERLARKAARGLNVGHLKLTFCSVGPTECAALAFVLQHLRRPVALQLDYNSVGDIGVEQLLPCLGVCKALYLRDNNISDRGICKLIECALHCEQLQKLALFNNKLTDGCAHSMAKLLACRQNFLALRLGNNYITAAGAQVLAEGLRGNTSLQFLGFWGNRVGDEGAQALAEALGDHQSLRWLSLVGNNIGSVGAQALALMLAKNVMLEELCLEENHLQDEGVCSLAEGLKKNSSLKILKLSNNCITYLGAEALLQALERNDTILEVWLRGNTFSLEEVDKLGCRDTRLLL

O=C(Oc1ccc(F)cc1)c1ccc2c(=O)n3c(nc2c1)CCC3
IC50 (cells): 3.88 µM (active)

O=C(CCS(=O)(=O)c1ccccc1)Nc1nc2c(s1)COc1ccccc1-2
EC50 [1]: 18.7 µM (active)
CC50 (Vero): > 25 µM (active)
EC50 [2]: 14.1 µM (active)

CCOCCCn1/c(=N/C(=O)c2cccnc2)c(C(=O)OCC)cc2c(=O)n3ccccc3nc21
IC50 [3]: 41.3 µM (active)

CCOC(=O)c1c(C)[nH]c(C(=O)COC(=O)[C@H](C)N2C(=O)C3CCCCC3C2=O)c1C (stereo not given in full)
AC50 [4]: 46.8 µM (active)

O=C(CNC(=O)c1ccc(Br)cc1)NCC(=O)OCC(=O)c1ccc([N+](=O)[O-])cc1
IC50 [5]: > 80 µM (inactive)

COc1ccc(-c2nsc(SCC(=O)Nc3cc(C)on3)n2)cc1
IC50 [6]: > 80 µM (inactive)

COc1c(O)ccc2c1CN1CCc3cc4c(cc3C1C2)OCO4 (stereo not given)
IC50 [5]: > 80 µM (inactive)
EC50 (Protein RecA): 14 µM (active)

O=C(CSc1nc2ccsc2c(=O)n1NC(=O)c1ccccc1)Nc1nccs1
IC50 (Aminopeptidase N): 37.4 µM (active)

COCCn1c(C)cc(C(=O)CSc2ncnc3sc4c(c23)CCC4)c1C
IC50 (HEK293 [7]): > 20 µM (inactive)
EC50 (HEK293 [8]): 10.7 µM (active)
EC50 [9]: 8.39 µM (active)
IC50 (HEK293 [10]): 15 µM (active)
IC50 (HEK293 [11]): 18.6 µM (inactive)
IC50 (HEK293 [12]): 19.4 µM (active)

COC(=O)CCC(=O)Nc1sc(C)c(C)c1C(N)=O
IC50 [3]: 38.2 µM (active)

Cc1cc(-c2cc(C(=O)NCc3ccccc3)on2)nc(S(C)(=O)=O)n1
IC50 [6]: > 80 µM (inactive)

O=S(=O)(c1ccc(NC(=S)NC23CC4CC(CC(C4)C2)C3)cc1)N1CCCCC1
CC50 (Vero): 8.76 µM (active)
